Data taken from ChEMBL document CHEMBL3804786, “Novel 1,3-thiazolidin-4-one derivatives as promising anti-Candida agents endowed with anti-oxidant and chelating properties” (Eur J Med Chem, 2016).
pEC50, pIC50: −log10 of the molar value. ≈ marks a conversion by molar mass, not a printed value.

Experiments:
Staphylococcus aureus = assay: Antibacterial activity against Staphylococcus aureus clinical isolate after 18 to 22 hrs by broth microdilution method; assay type: functional
Staphylococcus warneri = assay: Antibacterial activity against Staphylococcus warneri clinical isolate after 18 to 22 hrs by broth microdilution method; assay type: functional
Enterococcus faecalis = assay: Antibacterial activity against Streptococcus faecalis clinical isolate after 18 to 22 hrs by broth microdilution method; assay type: functional
Escherichia coli = assay: Antibacterial activity against Escherichia coli after clinical isolate 18 to 22 hrs by broth microdilution method; assay type: functional
Proteus mirabilis = assay: Antibacterial activity against Proteus mirabilis clinical isolate after 18 to 22 hrs by broth microdilution method; assay type: functional
Enterobacter sp. = assay: Antibacterial activity against Enterobacter spp. clinical isolate after 18 to 22 hrs by broth microdilution method; assay type: functional
Klebsiella oxytoca = assay: Antibacterial activity against Klebsiella oxytoca clinical isolate after 18 to 22 hrs by broth microdilution method; assay type: functional
Candida albicans = assay: Antifungal activity against Candida albicans clinical isolate after 24 hrs by broth microdilution method; assay type: functional
Nakaseomyces glabratus = assay: Antifungal activity against Candida glabrata clinical isolate after 24 hrs by broth microdilution method; assay type: functional
Candida tropicalis = assay: Antifungal activity against Candida tropicalis clinical isolate after 24 hrs by broth microdilution method; assay type: functional
Pichia kudriavzevii = assay: Antifungal activity against Candida krusei clinical isolate after 24 hrs by broth microdilution method; assay type: functional
Candida parapsilosis = assay: Antifungal activity against Candida parapsilosis clinical isolate after 24 hrs by broth microdilution method; assay type: functional; details: Lodderomyces parapsilosis
[Candida] sake = Antifungal activity against Candida sake clinical isolate after 24 hrs by broth microdilution method; assay type: functional; details: Fermentozyma sake
[1] = Cytotoxicity against human Hep2 cells assessed as cell survival at 0.05 ug/ml after 24 hrs by trypan blue exclusion assay; assay type: cell-based, HEp-2; details: read-out: Survival
[2] = Cytotoxicity against human Hep2 cells assessed as cell survival at 0.5 ug/ml after 24 hrs by trypan blue exclusion assay; assay type: cell-based, HEp-2; details: read-out: Survival
[3] = Cytotoxicity against human Hep2 cells assessed as cell survival at 5 ug/ml after 24 hrs by trypan blue exclusion assay; assay type: cell-based, HEp-2; details: read-out: Survival
[4] = Cytotoxicity against human Hep2 cells assessed as cell survival at 10 ug/ml after 24 hrs by trypan blue exclusion assay; assay type: cell-based, HEp-2; details: read-out: Survival
[5] = Cytotoxicity against human Hep2 cells assessed as cell survival at 50 ug/ml after 24 hrs by trypan blue exclusion assay; assay type: cell-based, HEp-2; details: read-out: Survival
[6] = Cytotoxicity against human Hep2 cells assessed as reduction in cell viability after 24 hrs by trypan blue exclusion assay; assay type: cell-based, HEp-2
[7] = Antioxidant activity of the compound after 90 mins by phosphomolybdenum assay; assay type: physicochemical
[8] = Antioxidant activity of the compound after 30 mins by FRAP assay; assay type: physicochemical
[9] = Antioxidant activity of the compound after 30 mins by CUPRAC method; assay type: physicochemical
[10] = Antioxidant activity assessed as DPPH radical scavenging activity after 30 mins under dark conditions; assay type: physicochemical
[11] = Antioxidant activity assessed as ABTS radical scavenging activity after 30 mins under dark conditions; assay type: physicochemical
[12] = Metal chelating activity of the compound assessed as ferrous ion complex formation after 10 mins; assay type: physicochemical
[13] = test system: Streptococcus sp. (viridans group); assay: Antibacterial activity against Streptococcus alpha-hemolyticus clinical isolate after 18 to 22 hrs by broth microdilution method

Row | Compound | MIC (Staphylococcus aureus) [µg/mL] | MIC (Staphylococcus warneri) [µg/mL] | MIC (Enterococcus faecalis) [µg/mL] | MIC (Escherichia coli) [µg/mL] | MIC (Proteus mirabilis) [µg/mL] | MIC (Enterobacter sp.) [µg/mL] | MIC (Klebsiella oxytoca) [µg/mL] | MIC (Candida albicans) [µg/mL] | MIC (Nakaseomyces glabratus) [µg/mL] | MIC (Candida tropicalis) [µg/mL] | MIC (Pichia kudriavzevii) [µg/mL] | MIC (Candida parapsilosis) [µg/mL] | MIC ([Candida] sake) [µg/mL] | viability at 24 h, 0.05 ug/ml [1] [%] | viability at 24 h, 0.5 ug/ml [2] [%] | viability at 24 h, 5 ug/ml [3] [%] | viability at 24 h, 10 ug/ml [4] [%] | viability at 24 h, 50 ug/ml [5] [%] | CC50 at 24 h [6] [µg/mL] | pEC50 [7] | also measured
1 | C/C(=N/N=C1\SCC(=O)N1Cc1ccccc1[N+](=O)[O-])c1cccs1 | > 256 | > 256 | > 256 | > 256 | > 256 | > 256 | > 256 | 2 (≈ 5.34 µM) | 2 (≈ 5.34 µM) | 4 (≈ 10.7 µM) | 2 (≈ 5.34 µM) | 8 (≈ 21.4 µM) | 2 (≈ 5.34 µM) | 88 | 84 | 74 | 61 | 0 | 20 (≈ 53.4 µM) | 2.95 | pEC50 [8]: 2.62; pEC50 [9]: 2.65; pIC50 [10]: < 2.30; pIC50 [11]: 1.74; pIC50 [12]: < 2.30; MIC [13]: > 256 µg/mL
2 | O=C1CS/C(=N\N=C2CCCC2)N1Cc1ccc(Cl)cc1 | > 256 | > 256 | > 256 | > 256 | > 256 | > 256 | > 256 | 2 (≈ 6.21 µM) | 2 (≈ 6.21 µM) | 2 (≈ 6.21 µM) | 8 (≈ 24.9 µM) | 2 (≈ 6.21 µM) | 4 (≈ 12.4 µM) | 89 | 83 | 59 | 47 | 0 | 16 (≈ 49.7 µM) | 3.25 | pEC50 [8]: 2.32; pEC50 [9]: 2.68; pIC50 [10]: < 2.30; pIC50 [11]: 1.74; pIC50 [12]: < 2.30; MIC [13]: > 256 µg/mL
